Values quoted from earlier work in paper PMC11232374, “Safety, tolerability, and pharmacokinetics of HRS9432(A) injection in healthy Chinese subjects: a phase-I randomized, double-blind, dose escalation, placebo-controlled study” (Antimicrobial Agents and Chemotherapy, 2024).

Conditions: after a single intravenous dose
Excerpt: Echinocandin-class antifungal drugs currently available on the market include caspofungin, micafungin, and anidulafungin. The chemical structures of these drugs contribute to their relatively short half-life, necessitating daily administration in clinical practice ([3]). Rezafungin is a long-acting echinocandin antifungal drug, based on the structure of anidulafungin to enhance metabolic stability. […] The results of its Pha ...

## Rezafungin
  elimination half-life: 150 h
